This note sets out measurements from patent publication US6605634B2 (Amgen, Inc., priority 1996, dated 2003).

In the experiment the test system is production of tumor necrosis factor (TNF) by monocytes activated with bacterial lipopolysaccharide (LPS). Put plainly: Lipopolysaccharide-activated Monocyte TNF Production Assay. Format: cell-based. The settings on record: Homo sapiens, TNF in culture supernatants by ELISA, read-out: IC50 (concentration of test compounds causing a 50% reduction in TNF production). The protocol: Lipopolysaccharide-activated Monocyte TNF Production Assay
Test compounds were evaluated in vitro for the ability to inhibit the production of tumor necrosis factor (TNF) by monocytes activated with bacterial lipopolysaccharide (LPS). Fresh residual source leukocytes (a byproduct of plateletpheresis) were obtained from the local blood bank and peripheral blood mononuclear cells (PBMCs) were isolated by density gradient centrifugation on Ficol-Paque Plus (Pharmacia). PBMCs were suspended at 2×10^6/ml in DMEM supplemented to contain 2% FCS (10 mM), 0.3 mg/ml glutamate, 100 U/ml penicillin G and […] streptomycin sulfate (complete media). Cells were plated into Falcon flatbottom 96 well culture plates (200 μl/well) and cultured overnight at 37° C. and 6% CO2. Nonadherent cells were removed by washing with 200 μl/well of fresh medium. Wells containing adherent cells (˜70% monocytes) were replenished with 100 μl of fresh medium.
Preparation of Test Compound Stock Solutions
Test compounds were dissolved in […]. Compound stock solutions were prepared to an initial concentration of […]. Stocks were diluted initially to 20-200 μM in complete media. Nine two-fold serial dilutions of each compound were then prepared in complete medium.
Treatment of Cells with Test Compounds and Activation of TNF Production with Lipopolysaccharide
One hundred microliters of each test compound dilution were added to microtiter wells containing adherent monocytes and 100 μl complete medium. Monocytes were cultured with test compounds for 60 min at which time 25 μl of complete medium containing 30 ng/ml lipopolysaccharide from E. coli K532 were added to each well. Cells were cultured an additional 4 hrs. Culture supernatants were then removed and TNF present in the supernatants was quantified using an ELISA.
Flat bottom 96 well Coming High Binding ELISA plates were coated overnight (4° C.) with 150 μL/well of 3 μg/ml murine anti-human TNFa MAb (R&D Systems #MAB210). Wells were then blocked 1 h at room temperature with 200 μL/well of CaCl2-free ELISA buffer supplemented to contain 20 mg/ml BSA (standard ELISA buffer: […], 150 mM NaCl, 2 mM CaCl2, 0.15 mM thimerosal, pH 7.4). Plates were washed and replenished with 100 μl of test supernatants (diluted 1:3) or standards. Standards consisted of eleven 1.5-fold serial dilutions from a stock of 1 ng/ml recombinant human TNF (R&D Systems). Plates were incubated at room temperature for 1 h on orbital shaker (300 rpm), washed and replenished with 100 μl/well of 0.5 jig/ml goat anti-human TNFa (R&D systems #AB-210-NA) biotinylated at a 4:1 ratio. Plates were incubate for 40 min, washed and replenished with 100 μl/well of alkaline phosphatase-conjugated streptavidin (Jackson ImmunoResearch #016-050-084) at 0.02 μg/ml. Plates were incubated 30 min, washed and replenished with 200 μl well of 1 mg/ml of p-nitrophenyl phosphate. After 30 min, plates were read at 405 nm on a Vmax plate reader.
Standard curve data were fit to a second order polynomial and unknown TNF-a concentrations determined from their OD by solving this equation for concentration. TNF concentrations were then plotted Vs test compound concentration using a second order polynomial. This equation was then used to calculate the concentration of test compounds causing a 50% reduction in TNF production.
Turning to `N[C@@H](Cc1csc2ccccc12)C(=O)Nc1ccc2c(-c3ccncc3)c(-c3ccc(F)cc3)[nH]c2n1` [Compound 137, 6-(3′-(3-benzothienyl)-1′-oxo-2′S-aminopropylamino)-3-(4-pyridyl)-2-(4-fluorophenyl)-7-aza-indole], the IC50 is below 20 µM.

In the case of `N[C@@H](CCc1ccccc1)C(=O)Nc1ccc2c(-c3ccncc3)c(-c3ccc(F)cc3)[nH]c2n1` [Compound 139, 6-(4′-phenyl-1′-oxo-2′-(L)-aminobutylamino)-3-(4-pyridyl)-2-(4-fluorophenyl)-7-aza-indole], the IC50 was below 20 µM. Consider `N[C@H](CCc1ccccc1)C(=O)Nc1ccc2c(-c3ccncc3)c(-c3ccc(F)cc3)[nH]c2n1` [Compound 141, 6-(4′-phenyl-1′-oxo-2′-(D)-aminobutylamino)-3-(4-pyridyl)-2-(4-fluorophenyl)-7-aza-indole], for which the IC50 is below 20 µM. Consider `CC(C)COC(=O)n1c(-c2ccc(F)cc2)c(-c2ccncc2)c2ccc(NC(=O)CN)nc21` [Compound 143, 6-(2′-amino-1′-oxo-ethylamino)-3-(4-pyridyl)-2-(4-fluorophenyl)-1-isobutoxycarbonyl-7-aza-indole], for which the IC50 was below 20 µM. Consider `CC(C)(C)CNc1ccc2c(-c3ccncc3)c(-c3ccc(F)cc3)[nH]c2n1` [Compound 151, 6-(2′,2′-dimethylpropylamino)-3-(4-pyridyl)-2-(4-fluorophenyl)-7-aza-indole], for which the IC50 was below 20 µM. On to `CC(C)CCNc1ccc2c(-c3ccncc3)c(-c3ccc(F)cc3)[nH]c2n1` [Compound 152, 6-(isoamylamino)-3-(4-pyridyl)-2-(4-fluorophenyl)-7-aza-indole], for which the IC50 is below 20 µM. With `CCC(CC)CNc1ccc2c(-c3ccncc3)c(-c3ccc(F)cc3)[nH]c2n1` [Compound 153, 6-(2′-ethylbutylamino)-3-(4-pyridyl)-2-(4-fluorophenyl)-7-aza-indole], the IC50 was below 20 µM.

As for `Fc1ccc(-c2[nH]c3nc(NCc4cccs4)ccc3c2-c2ccncc2)cc1` [Compound 154, 6-(2′-thienylmethylamino)-3-(4-pyridyl)-2-(4-fluorophenyl)-7-aza-indole], the IC50 is below 20 µM.

In the case of `CCNc1ccc2c(-c3ccncc3)c(-c3ccc(F)cc3)[nH]c2n1` [Compound 156, 6-(ethylamino)-3-(4-pyridyl)-2-(4-fluorophenyl)-7-aza-indole], the IC50 is below 20 µM. Next, `Cn1c(-c2ccc(F)cc2)c(-c2ccncc2)c2ccc(NC(=O)CN)nc21` [Compound 158, 6(2′-amino-1′-oxo-ethylamino)-3-(4-pyridyl)-2-(4-fluorophenyl)-1-methyl-7-aza-indole]: below 20 µM.
